Experiments:
Assay type in all cases: cell-based
[1] = target: EP4 subtype of the human PGE2 receptor (Homo sapiens, UniProt P35408); assay: cAMP antagonism test on the human EP4 receptor (HTRF cAMP detection); details: selectivity towards hEP4, IC50 measured by cAMP antagonism test
How it was run: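 Cells expressing human EP4 preincubated 20 min at RT with compound (0.8 nM–16.5 μM), then stimulated with PGE2 (0.3 nM in 3× solution, with IBMX) 60 min at RT. After lysis, cAMP measured by HTRF competition (665/620 nm ratio); antagonism seen as rise in FRET signal.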

[2] = target: EP2 subtype of the human PGE2 receptor (Homo sapiens, UniProt P43116); assay: cAMP antagonism test on the human EP2 receptor (HTRF cAMP detection); details: hEP2 receptor, read-out: Antagonism hEP2 IC50
How it was run: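 Cells expressing human EP2 preincubated 20 min at RT with compound (0.8 nM–16.5 μM), then stimulated 60 min with PGE2 (3× solution 1.5 nM) in PBS-IBMX. After 20 min lysis, cAMP measured by competitive HTRF with cAMP-d2 and Eu cryptate anti-cAMP antibody (665/620 nm ratio).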

human PGD receptor = target: T1, human PGD receptor (Homo sapiens, UniProt Q13258); assay: cAMP antagonism test on the human prostaglandin D receptor (HTRF cAMP detection); details: selectivity towards hDP, IC50 measured by cAMP antagonism test
T1 sequence (Q13258 1-359): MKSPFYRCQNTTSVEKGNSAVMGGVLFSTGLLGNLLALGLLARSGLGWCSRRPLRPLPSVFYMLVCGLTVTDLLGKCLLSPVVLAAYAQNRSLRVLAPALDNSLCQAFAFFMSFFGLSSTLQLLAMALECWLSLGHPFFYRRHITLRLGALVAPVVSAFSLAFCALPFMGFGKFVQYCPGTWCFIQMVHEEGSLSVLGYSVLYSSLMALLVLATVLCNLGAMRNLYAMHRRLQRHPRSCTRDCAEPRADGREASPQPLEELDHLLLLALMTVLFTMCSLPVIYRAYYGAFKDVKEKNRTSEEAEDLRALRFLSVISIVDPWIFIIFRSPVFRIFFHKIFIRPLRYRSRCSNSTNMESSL
How it was run: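 Cells pre-mixed with cAMP-d2 were preincubated with compound (0.8 nM–16.5 μM) for 20 min at RT, then stimulated with 3× PGD2 solution (6 nM, in PBS-IBMX) for 30 min at RT. After lysis (20 min), HTRF read at 665/620 nm; antagonism seen as rise in FRET ratio.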

EP4 subtype of the human PGE2 receptor, sequence (P35408 whole entry): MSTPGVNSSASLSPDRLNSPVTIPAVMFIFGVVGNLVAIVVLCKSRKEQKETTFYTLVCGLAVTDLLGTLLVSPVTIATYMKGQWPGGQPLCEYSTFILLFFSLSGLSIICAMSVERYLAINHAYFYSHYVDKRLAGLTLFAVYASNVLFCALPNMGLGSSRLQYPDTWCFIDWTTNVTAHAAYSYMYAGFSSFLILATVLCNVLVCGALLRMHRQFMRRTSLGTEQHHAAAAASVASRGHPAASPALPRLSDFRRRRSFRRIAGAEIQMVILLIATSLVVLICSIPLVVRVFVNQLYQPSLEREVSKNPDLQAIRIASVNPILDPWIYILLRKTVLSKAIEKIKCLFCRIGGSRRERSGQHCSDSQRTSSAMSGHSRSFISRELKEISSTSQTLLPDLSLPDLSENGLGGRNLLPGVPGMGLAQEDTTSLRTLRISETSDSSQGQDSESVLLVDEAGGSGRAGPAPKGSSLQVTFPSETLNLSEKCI
EP2 subtype of the human PGE2 receptor, sequence (P43116 whole entry): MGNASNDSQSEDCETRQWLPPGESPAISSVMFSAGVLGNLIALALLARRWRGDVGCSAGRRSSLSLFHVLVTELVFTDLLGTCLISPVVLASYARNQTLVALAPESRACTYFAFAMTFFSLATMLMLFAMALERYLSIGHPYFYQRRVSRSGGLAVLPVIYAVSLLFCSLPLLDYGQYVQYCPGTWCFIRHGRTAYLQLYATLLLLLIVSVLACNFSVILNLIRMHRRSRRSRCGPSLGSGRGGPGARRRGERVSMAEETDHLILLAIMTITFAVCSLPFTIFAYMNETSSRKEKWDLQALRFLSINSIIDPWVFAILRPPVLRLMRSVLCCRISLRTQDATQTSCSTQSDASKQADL

SMILES	Selectivity hEP2/hEP4 [1]	IC50 [2] [nM]	Selectivity hEP2/hDP (human PGD receptor)
COCCNC(=O)c1ccc2nn(CC3CCN(C(=O)c4ccc(-c5ccc(C)cc5)cc4F)CC3)cc2c1C [Example 44, 2-({1-[(3-fluoro-4′-methylbiphenyl-4-yl)carbonyl]piperidin-4-yl}methyl)-N-(2-methoxyethyl)-4-methyl-2H-indazol-5-carboxamide]	xxx (xxx > 100)	3.85	xxx (xxx > 100)
COc1cc(F)ccc1-c1ccc(C(=O)N2CCC(Cn3cc4c(C)c(C(=O)NCC(F)(F)F)ccc4n3)CC2)cc1 [Example 320, 2-({1-[(4′-fluoro-2′-methoxybiphenyl-4-yl)carbonyl]piperidin-4-yl}methyl)-4-methyl-N-(2,2,2-trifluoroethyl)-2H-indazol-5-carboxamide]	xxx (xxx > 100)	15.6	xxx (xxx > 100)
COCCNC(=O)c1ccc2nn(CC3CCN(C(=O)c4cc(-c5ccccc5)no4)CC3)cc2c1C [Example 13, N-(2-methoxyethyl)-4-methyl-2-({1-[(3-phenylisoxazol-5-yl)carbonyl]piperidin-4-yl}methyl)-2H-indazol-5-carboxamide]	xxx (xxx > 100)	35.9	xxx (xxx > 100)
COCCNC(=O)c1ccc2nn(CC3CN(C(=O)c4ccc5ccc(OC)cc5c4)C3)cc2c1C [Example 175, N-(2-methoxyethyl)-2-{[1-(7-methoxy-2-naphthoyl)azetidin-3-yl]methyl}-4-methyl-2H-indazol-5-carboxamide]	xxx (xxx > 100)	8.05	xxx (xxx > 100)
CCNC(=O)c1ccc2nn(CC3CCN(C(=O)c4ccc(Cl)cc4)CC3)cc2c1C [Example 242, 2-{[1-(4-chlorobenzoyl)piperidin-4-yl]methyl}-N-ethyl-4-methyl-2H-indazol-5-carboxamide]	xx (xx: 10-100)	305	xx (xx: 10-100)
COCCNC(=O)c1ccc2nn(CC3CCN(C(=O)c4cc5ccccc5n4C)CC3)cc2c1C [Example 29, N-(2-methoxyethyl)-4-methyl-2-({1-[(1-methyl-1H-indol-2-yl)carbonyl]-piperidin-4-yl}methyl)-2H-indazol-5-carboxamide]	xxx (xxx > 100)	9.31	xxx (xxx > 100)
Cc1c(C(=O)NCC(C)OCC2CC2)ccc2nn(CC3CCN(C(=O)c4ccc(C5CC5)cc4)CC3)cc12 (racemic) [Example 106, (+/−)-2-{[1-(4-cyclopropylbenzoyl)piperidin-4-yl]-methyl}-N-[2-(cyclopropyl-methoxy)propyl]-4-methyl-2H-indazol-5-carboxamide]	xxx (xxx > 100)	150	xxx (xxx > 100)
COCCNC(=O)c1cc2cn(CC3CN(C(=O)c4ccc(-c5ccc(F)cc5)cc4)C3)nc2cc1C [Example 204, 2-({1-[(4′-fluorobiphenyl-4-yl)carbonyl]azetidin-3-yl}methyl)-N-(2-methoxy-ethyl)-6-methyl-2H-indazol-5-carboxamide]	xxx (xxx > 100)	10	xxx (xxx > 100)
Cc1c(C(=O)NCC(F)(F)F)ccc2nn(CC3CN(C(=O)c4ccc(Oc5ccc(C(F)(F)F)cc5)cc4)C3)cc12 [Example 164, 4-methyl-N-(2,2,2-trifluoroethyl)-2-[(1-{4-[4-(trifluoromethyl)phenoxy]benzoyl}azetidin-3-yl)methyl]-2H-indazol-5-carboxamide]	xxx (xxx > 100)	10.9	xxx (xxx > 100)
Cc1c(C(=O)NCC2CCCCO2)ccc2nn(CC3CCN(C(=O)c4ccc(Oc5ccc(C(F)(F)F)cc5)cc4)CC3)cc12 (racemic) [Example 248, (+/−)-4-methyl-N-(3,4,5,6-tetrahydro-2H-pyran-2-ylmethyl)-2-[(1-{4-[4-(trifluoromethyl)phenoxy]benzoyl}piperidin-4-yl)methyl]-2H-indazol-5-carboxamide]	xxx (xxx > 100)	14.7	xxx (xxx > 100)
COCCNC(=O)c1cc2cn(CC3CN(C(=O)c4ccc(C(F)(F)F)c(F)c4)C3)nc2cc1C [Example 184, 2-({1-[3-fluoro-4-(trifluoromethyl)benzoyl]azetidin-3-yl}methyl)-N-(2-methoxy-ethyl)-6-methyl-2H-indazol-5-carboxamide]	xxx (xxx > 100)	76.8	xxx (xxx > 100)
Cc1c(C(=O)NCC(F)(F)F)ccc2nn(CC3CCN(C(=O)c4ccc(-c5cccc(C(F)(F)F)n5)cc4)CC3)cc12 [Example 329, 4-methyl-N-(2,2,2-trifluoroethyl)-2-[(1-{4-[6-(trifluoromethyl)pyridin-2-yl]-benzoyl}piperidin-4-yl)methyl]-2H-indazol-5-carboxamide]	xx (xx: 10-100)	232	xx (xx: 10-100)
Cc1c(C(=O)NCC2CCCCO2)ccc2nn(CC3CN(C(=O)c4ccc(Cl)cc4)C3)cc12 (single isomer, unassigned) [Example 145, (R or S)-2-{[1-(4-chlorobenzoyl)azetidin-3-yl]methyl}-4-methyl-N-(3,4,5,6-tetrahydro-2H-pyran-2-ylmethyl)-2H-indazol-5-carboxamide]	xxx (xxx > 100)	18.8	xxx (xxx > 100)

More lines, now with the values ahead:

Selectivity hEP2/hEP4 [1]	IC50 [2] [nM]	Selectivity hEP2/hDP (human PGD receptor)	SMILES
xxx (xxx > 100)	3.67	xxx (xxx > 100)	COCCNC(=O)c1ccc2nn(CC3CCN(C(=O)c4ccc(Oc5ccc(Cl)cc5)cc4)CC3)cc2c1C [Example 14, 2-({1-[4-(4-chloro-phenoxy)benzoyl]-piperidin-4-yl}-methyl)-N-(2-methoxyethyl)-4-methyl-2H-indazol-5-carboxamide]
xxx (xxx > 100)	10.2	xxx (xxx > 100)	O=C(NCCOCC1CC1)c1ccc2nn(CC3CCN(C(=O)c4ccc(Cl)cc4)CC3)cc2c1OC(F)F [Example 229, 2-{[1-(4-chlorobenzoyl)piperidin-4-yl]methyl}-N-[2-(cyclopropylmethoxy)-ethyl]-4-(difluoromethoxy)-2H-indazol-5-carboxamide]
xxx (xxx > 100)	13.7	xxx (xxx > 100)	CCOCCNC(=O)c1ccc2nn(CC3CCN(C(=O)c4ccc(Cl)cc4)CC3)cc2c1OC [Example 264, 2-{[1-(4-chlorobenzoyl)piperidin-4-yl]methyl}-N-(2-ethoxyethyl)-4-methoxy-2H-indazol-5-carboxamide]
xxx (xxx > 100)	18.9	xxx (xxx > 100)	COCCNC(=O)c1ccc2nn(CC3CCN(C(=O)c4ccc(OC(F)(F)F)cc4)CC3)cc2c1OC [Example 266, 4-methoxy-N-(2-methoxyethyl)-2-({1-[4-(trifluoromethoxy)benzoyl]piperidin-4-yl}methyl)-2H-indazol-5-carboxamide]
xxx (xxx > 100)	20.3	xxx (xxx > 100)	Cc1ccc(C(=O)N2CCC(Cn3cc4c(C)c(C(=O)NCCOCC(F)(F)F)ccc4n3)CC2)cc1 [Example 91, 4-methyl-2-{[1-(4-methylbenzoyl)-piperidin-4-yl]-methyl}-N-[2-(2,2,2-trifluoro-ethoxy)ethyl]-2H-indazol-5-carboxamide]
xxx (xxx > 100)	67	xxx (xxx > 100)	Cc1cc2nn(CC3CCN(C(=O)c4ccc(OC(F)(F)F)cc4)CC3)cc2cc1C(=O)NCCN1CCOCC1 [Example 75, 6-methyl-N-(2-morpholinoethyl)-2-({1-[4-(trifluorometh-oxy)benzoyl]piperidin-4-yl}methyl)-2H-indazol-5-carboxamide]
xxx (xxx > 100)	12.7	xxx (xxx > 100)	Cc1c(C(=O)NCCOCC(F)(F)F)ccc2nn(CC3CCN(C(=O)c4ccc(Oc5ccc(F)cc5)cc4)CC3)cc12 [Example 92, 2-({1-[4-(4-fluoro-phenoxy)benzoyl]-piperidin-4-yl}-methyl)-4-methyl-N-[2-(2,2,2-tri-fluoroethoxy)ethyl]-2H-indazol-5-carboxamide]

— patent US9062041B2 (Bayer Intellectual Property GmbH, priority 2011, dated 2015)
